Assay results taken from patent publication US11708348B2, “Protease inhibitors for treatment of coronavirus infections” (The Scripps Research Institute, priority 2021, dated 2023).
Where two headings read alike, the source gives them in different places.

System: SARS-CoV-2 strain USA-WA1/2020
Test: microbe, parasite or virus in culture
Type: cell-based
Settings: read-out: EC50, uM (Hela)
[1] = Severe acute respiratory syndrome coronavirus 2, HeLa-ACE2, 24 h, HeLa-ACE2 cells, SARS-CoV-2 infection, 24 h, bound printed in cell
[2] = Severe acute respiratory syndrome coronavirus 2, HeLa-ACE2, 24 h, HeLa-ACE2 cells, SARS-CoV-2 infection, 24 h
[3] = Severe acute respiratory syndrome coronavirus 2, HeLa-ACE2, 24 h, HeLa-ACE2 cells, SARS-CoV-2 infection, 24 h, class symbols
[4] = Severe acute respiratory syndrome coronavirus 2, HeLa-ACE2, 24 h, HeLa-ACE2 cells, SARS-CoV-2 infection, 24 h, cells given as a bound

## O=C1NCC[C@H]1C[C@H](NC(=O)[C@@H]1C[C@H]2C[C@H]2N1C(=O)[C@H]1CCCO1)C(=O)COC(F)(F)F [Compound 303, (1R,3S,5R)-N-((S)-3-oxo-1-((S)-2-oxopyrrolidin-3-yl)-4-(trifluoromethoxy)butan-2-yl)-2-((R)-tetrahydrofuran-2-carbonyl)-2-azabicyclo[3.1.0]-hexane-3-carboxamide]
[1]
  EC50: > 1 µM

## O=C1NCC[C@H]1C[C@H](NC(=O)[C@@H]1CC2(CC2)CN1C(=O)C(O)c1ccccn1)C(=O)COC(F)(F)F (stereo partly drawn) [Compound 418, (6S)-5-(2-hydroxy-2-(pyridin-2-yl)acetyl)-N-((S)-3-oxo-1-((S)-2-oxopyrrolidin-3-yl)-4-(trifluoromethoxy)butan-2-yl)-5-azaspiro[2.4]heptane-6-carboxamide]
[2]
  EC50: 0.05 to 0.2 µM

## Cc1cccc(C)c1NC(=O)C(=O)N[C@@H](CC(C)C)C(=O)N[C@@H](C[C@@H]1CCNC1=O)C(=O)COC(F)(F)F [Compound 152, N1-(2,6-dimethylphenyl)-N2-((S)-4-methyl-1-oxo-1-(((S)-3-oxo-1-((S)-2-oxopyrrolidin-3-yl)-4-(trifluoromethoxy)butan-2-yl)amino)pentan-2-yl)oxalamide]
[3]
  EC50: < 0.05 µM

## O=C1NCC[C@H]1C[C@H](NC(=O)[C@@H]1CC2(CC2)CN1C(=O)C(O)c1cccc(F)c1)C(=O)COC(F)(F)F (stereo partly drawn) [Compound 405, (6S)-5-(2-(3-fluorophenyl)-2-hydroxyacetyl)-N-((S)-3-oxo-1-((S)-2-oxopyrrolidin-3-yl)-4-(trifluoromethoxy)butan-2-yl)-5-azaspiro[2.4]heptane-6-carboxamide]
[2]
  EC50: 0.05 to 0.2 µM

## [2H]C([2H])([2H])C([2H])(C([2H])([2H])[2H])C([2H])([2H])C(=O)N1CC2(CC2)C[C@H]1C(=O)N[C@@H](C[C@@H]1CCNC1=O)C(=O)COC(F)(F)F [Compound 737, (S)-5-(3-(methyl-d3)butanoyl-2,2,3,4,4,4-d6)-N-((S)-3-oxo-1-((S)-2-oxopyrrolidin-3-yl)-4-(trifluoromethoxy)butan-2-yl)-5-azaspiro[2.4]heptane-6-carboxamide]
[2]
  EC50: < 0.05 µM

## C=CCCC(=O)N1CC2(CC2)C[C@H]1C(=O)N[C@@H](C[C@@H]1CCNC1=O)C(=O)COC(F)(F)F [Compound 690, (S)-N-((S)-3-oxo-1-((S)-2-oxopyrrolidin-3-yl)-4-(trifluoromethoxy)butan-2-yl)-5-(pent-4-enoyl)-5-azaspiro[2.4]heptane-6-carboxamide]
[2]
  EC50: 0.05 to 0.2 µM

## CC(C)C[C@H](NC(=O)C(=O)Nc1ccccc1F)C(=O)N[C@@H](C[C@@H]1CCNC1=O)C(=O)COP(C)(=O)c1ccccc1 (stereo partly drawn) [Compound 651, (S)-3-((S)-2-(2-((2-fluorophenyl)amino)-2-oxoacetamido)-4-methylpentanamido)-2-oxo-4-((S)-2-oxopyrrolidin-3-yl)butyl methyl(phenyl)phosphinate]
Severe acute respiratory syndrome coronavirus 2, HeLa-ACE2, 24 h
  EC50: 0.05 to 0.2 µM

## CC(C)C[C@@H](O)C(=O)N[C@@H](CC(C)C)C(=O)N[C@@H](C[C@@H]1CCNC1=O)C(=O)COC(F)(F)F [Compound 767, (R)-2-hydroxy-4-methyl-N-((S)-4-methyl-1-oxo-1-(((S)-3-oxo-1-((S)-2-oxopyrrolidin-3-yl)-4-(trifluoromethoxy)butan-2-yl)amino)pentan-2-yl)pentanamide]
[2]
  EC50: 0.2 to 0.5 µM

## O=C1NCC[C@H]1C[C@H](NC(=O)[C@@H]1[C@H]2CCC[C@H]2CN1C(=O)[C@H](O)CC1CC1)C(=O)COC(F)(F)F [Compound 393, (1S,3aR,6aS)-2-((R)-3-cyclopropyl-2-hydroxypropanoyl)-N-((S)-3-oxo-1-((S)-2-oxopyrrolidin-3-yl)-4-(trifluoromethoxy)butan-2-yl)octahydrocyclo-penta[c]pyrrole-1-carboxamide]
[3]
  EC50: < 0.05 µM

## COc1ccc(F)cc1NC(=O)C(=O)N[C@@H](CC(C)C)C(=O)N[C@@H](C[C@@H]1CCNC1=O)C(=O)COc1c(F)c(F)cc(F)c1F [Compound 79, N1-(5-fluoro-2-methoxyphenyl)-N2-((S)-4-methyl-1-oxo-1-(((S)-3-oxo-1-((S)-2-oxopyrrolidin-3-yl)-4-(2,3,5,6-tetrafluorophenoxy)butan-2-yl)amino)pentan-2-yl)oxalamide]
[3]
  EC50: 0.05 to 0.2 µM

## CC(C)C[C@H](NC(=O)C(=O)NC(C)(C)C)C(=O)N[C@@H](C[C@@H]1CCNC1=O)C(=O)COC(F)(F)F [Compound 180, N1-(tert-butyl)-N2-((S)-4-methyl-1-oxo-1-(((S)-3-oxo-1-((S)-2-oxopyrrolidin-3-yl)-4-(trifluoromethoxy)butan-2-yl)amino)pentan-2-yl)oxalamide]
[3]
  EC50: < 0.05 µM

## CC1(C)C[C@@H](C(=O)N[C@@H](C[C@@H]2CCNC2=O)C(=O)COC(F)(F)F)N(C(=O)C(=O)NC2CC(F)(F)C2)C1 [Compound 543, (S)-1-(2-((3,3-difluorocyclo-butyl)amino)-2-oxoacetyl)-4,4-dimethyl-N-((S)-3-oxo-1-((S)-2-oxopyrrolidin-3-yl)-4-(trifluoromethoxy)butan-2-yl)pyrrolidine-2-carboxamide]
[2]
  EC50: 0.5 to 1 µM

## CC(C)C[C@H](NC(=O)OCCCc1cccc(Cl)c1)C(=O)N[C@@H](C[C@@H]1CCNC1=O)C(=O)COc1c(F)c(F)cc(F)c1F [Compound 128, 3-(3-chlorophenyl)propyl ((S)-4-methyl-1-oxo-1-(((S)-3-oxo-1-((S)-2-oxopyrrolidin-3-yl)-4-(2,3,5,6-tetrafluorophenoxy)butan-2-yl)amino)pentan-2-yl)carbamate]
[4]
  EC50: > 1 µM

## O=C(N[C@H]1[C@@H]2COC[C@@H]21)C(=O)N1C[C@@H]2CCC[C@@H]2[C@H]1C(=O)N[C@@H](C[C@@H]1CCNC1=O)C(=O)COC(F)(F)F [Compound 548, (1S,3aR,6aS)-2-(2-(((1R,5S,6r)-3-oxabicyclo[3.1.0]-hexan-6-yl)amino)-2-oxoacetyl)-N-((S)-3-oxo-1-((S)-2-oxopyrrolidin-3-yl)-4-(trifluoromethoxy)butan-2-yl)octahydrocyclo-penta[c]pyrrole-1-carboxamide]
[2]
  EC50: 0.2 to 0.5 µM

## (S)-4-methyl-2-((l- methyl-1H-indole)-5- sulfonamido)-N-((S)- 3-oxo-1-((S)-2- oxopyrrolidin-3-yl)-4- (trifluoromethoxy)butan- 2-yl)pentanamide [Compound 463]
HeLa-ACE2 cells, SARS-CoV-2 infection, 24 h
  EC50: 0.2 to 0.5 µM

## CC1(C)[C@@H]2[C@@H](C(=O)N[C@@H](C[C@@H]3CCNC3=O)C(=O)COC(F)(F)F)N(C(=O)[C@H](O)c3ccccc3F)C[C@@H]21 [Compound 407, (1R,2S,5S)-3-((R)-2-(2-fluorophenyl)-2-hydroxyacetyl)-6,6-dimethyl-N-((S)-3-oxo-1-((S)-2-oxopyrrolidin-3-yl)-4-(trifluoromethoxy)butan-2-yl)-3-azabicyclo[3.1.0]hexane-2-carboxamide]
[2]
  EC50: < 0.05 µM

## CC(C)C[C@H](NC(=O)C(=O)Nc1ccccc1F)C(=O)N[C@@H](C[C@@H]1CCNC1=O)C(=O)COC(C(F)F)C(F)F [Compound 175, N1-(2-fluorophenyl)-N2-((S)-4-methyl-1-oxo-1-(((S)-3-oxo-1-((S)-2-oxopyrrolidin-3-yl)-4-((1,1,3,3-tetrafluoropropan-2-yl)oxy)butan-2-yl)amino)pentan-2-yl)oxalamide]
[4]
  EC50: > 1 µM

## O=C1NCC[C@H]1C[C@H](NC(=O)[C@@H]1CC2(CC2)CN1C(=O)c1cccc(C(F)(F)F)c1)C(=O)COC(F)(F)F [Compound 457, (S)-N-((S)-3-oxo-1-((S)-2-oxopyrrolidin-3-yl)-4-(trifluoromethoxy)butan-2-yl)-5-(3-(trifluoromethyl)-benzoyl)-5-azaspiro[2.4]heptane-6-carboxamide]
[2]
  EC50: < 0.05 µM

## CC(C)C[C@@H](O)C(=O)N1[C@H](C(=O)N[C@@H](C[C@@H]2CCNC2=O)C(=O)COC(F)(F)F)CCC1(C)C [Compound 787, (S)-1-((R)-2-hydroxy-4-methylpentanoyl)-5,5-dimethyl-N-((S)-3-oxo-1-((S)-2-oxopyrrolidin-3-yl)-4-(trifluoromethoxy)butan-2-yl)pyrrolidine-2-carboxamide]
[2]
  EC50: 0.05 to 0.2 µM

## Cc1cc(C(=O)N2C[C@@H]3CCC[C@@H]3[C@H]2C(=O)N[C@@H](C[C@@H]2CCNC2=O)C(=O)COC(F)(F)F)no1 [Compound 545, (1S,3aR,6aS)-2-(5-methylisoxazole-3-carbonyl)-N-((S)-3-oxo-1-((S)-2-oxopyrrolidin-3-yl)-4-(trifluoromethoxy)butan-2-yl)octahydrocyclopenta[c]pyrrole-1-carboxamide]
[2]
  EC50: 0.05 to 0.2 µM

## CNS(=O)(=O)NCC(=O)N1CC2(CC2)C[C@H]1C(=O)N[C@@H](C[C@@H]1CCNC1=O)C(=O)COC(F)(F)F [Compound 691, (S)-5-((N-methylsulfamoyl)glycyl)-N-((S)-3-oxo-1-((S)-2-oxopyrrolidin-3-yl)-4-(trifluoromethoxy)butan-2-yl)-5-azaspiro[2.4]heptane-6-carboxamide]
[2]
  EC50: 0.5 to 1 µM

## CC(C)C[C@H](NC(=O)[C@H](O)C(F)(F)F)C(=O)N[C@@H](C[C@@H]1CCNC1=O)C(=O)COC(F)(F)F [Compound 384, (S)-4-methyl-N-((S)-3-oxo-1-((S)-2-oxopyrrolidin-3-yl)-4-(trifluoromethoxy)butan-2-yl)-2-((S)-3,3,3-trifluoro-2-hydroxypropanamido)-pentanamide]
[3]
  EC50: 0.05 to 0.2 µM

## CC(C)C[C@H](NC(=O)[C@H](CCCCN)NC(=O)c1ccccc1F)C(=O)N[C@@H](C[C@@H]1CCNC1=O)C(=O)COC(F)(F)F [Compound 208, N-((S)-6-amino-1-(((S)-4-methyl-1-oxo-1-(((S)-3-oxo-1-((S)-2-oxopyrrolidin-3-yl)-4-(trifluoromethoxy)butan-2-yl)amino)pentan-2-yl)amino)-1-oxohexan-2-yl)-2-fluorobenzamide]
[1]
  EC50: > 1 µM
